According to US10314909B2, “Combination therapy comprising an MMP-14 binding protein” (DYAX CORP., priority 2011, dated 2019):

Key:
Assay type in all cases: in vivo
[1] = tested on: A375 human melanoma xenograft; experiment: subcutaneous A375 human melanoma xenograft model, tumor size; conditions: BALB/c nude mice, s.c. A375, DX-2400 20 mg/kg i.v. Q3D X6; for tumor volume: darcabazine 150 mg/kg i.p. Day 1, 4/wk x 3, compared to untreated mice (FIG. 1); for tumor growth rate: darcabazine 150 mg/kg i.p., compared to untreated mice
Description: The in vivo therapeutic efficacy of DX-2400 as a single agent or in combination with darcabazine was determined using a subcutaneous A375 human melanoma xenograft model.
(§1) A375 tumor cells were maintained in vitro as a monolayer culture in DMEM medium, supplemented with 10% heat inactivated fetal bovine serum, 100 U/ml penicillin and 100 μg/ml streptomycin, and L-glutamine (2 mM) at 37° C. in an atmosphere of 5% CO2 in air. The tumor cells were routinely subcultured twice weekly by trypsin-EDTA treatment. The cells growing in an exponential growth phase were harvested and counted for tumor inoculation.
(§2) 55 BALB/c nude, female, 6-8 weeks, weighing approximately 18-22 were purchased from Shanghai Laboratory Animal Center SLAC (Shanghai, China) for use in the study (40 mice+˜40% spare). Each mouse was inoculated subcutaneously at the right flank with A375 tumor cells (5×10^6) in 0.1 ml of PBS for tumor development. The treatments were started when the mean tumor size reached approximately 150˜200 mm^3. Each group consisted of 10 mice.
(§3) The major endpoint is to see if the tumor growth can be delayed or tumor bearing mice can be cured. Tumor sizes were measured twice weekly in two dimensions using a caliper, and the volume was expressed in mm^3 using the formula: V=0.5 a×b^2 where a and b are the long and short diameters of the tumor, respectively. The tumor sizes were then used for the calculations of both T-C and T/C values. T-C is calculated with T as the time (in days) required for the mean tumor size of the treatment group to reach a predetermined size (e.g., 1000 mm^3), and C is the time (in days) for the mean tumor size of the control group to reach the same size. The T/C value (in percent) is an indication of antitumor effectiveness, T and C are the mean volume of the treated and control groups, respectively, on a given day.

[2] = tested on: primary human pancreatic cancer PAM527 xenograft; experiment: subcutaneous primary human pancreatic cancer PAM527 xenograft model in nude mice, tumor size; conditions: BALB/c nude mice, s.c. PAM527 tumor fragment; DX-2400 20 mg/kg i.v. Q3d x 6; gemcitabine 60 mg/kg i.p. Q4d x 4; compared to untreated mice (FIG. 3A)
Description: The in vivo anti-tumor activity of DX-2400 as a single agent or in combination with gemcitabine was evaluated in the treatment of subcutaneous primary human pancreatic cancer using a PAM527 xenograft model in nude mice.
75 BALB/c nude mice, female, 6-8 weeks, weighing approximately 18-24 g were purchased from SLAC, Shanghai, P. R. China (40 mice+˜90% spare). Tumor fragments from seed mice inoculated with selected primary human pancreatic cancer tissues (PAM527) were harvested and used for inoculation into BALB/c nude mice. Each mouse was inoculated subcutaneously at the right flank with one tumor fragment (2-3 mm in diameter) for tumor development. The treatments were started when the mean tumor size reached approximately 150 mm^3. Each group consisted of 10 mice.
as §3, with “The tumor sizes were then used for the calculations of both T-C and T/C values.” left out, “The T/C value (in percent) is an indication of antitumor effectiveness, T and C are the mean volume of the treated and control groups, respectively, on a given day.” left out

[3] = tested on: Panc-1 human pancreas cancer xenograft; experiment: subcutaneous Panc-1 human pancreas cancer xenograft model, tumor size; conditions: BALB/c nude mice, s.c. Panc-1; DX-2400 20 mg/kg i.v. Q3D X6; gemcitabine 50 mg/kg i.p. Q3D X4; compared to untreated mice (FIG. 4A)
Description: The in vivo therapeutic efficacy of DX-2400 as a single agent or in combination with gemcitabine was evaluated in the treatment of a subcutaneous Panc-1 human pancreas cancer xenograft model.
as §1, with “Panc-1 tumor cells” for “A375 tumor cells”, “tumor cells will be routinely subcultured” for “tumor cells were routinely subcultured”, “growth phase will be harvested and” for “growth phase were harvested and”
A total of 56 (40 plus 40% spare) BALB/c nude, female, 6-8 weeks, weighing approximately 18-22 g were purchased from Shanghai Laboratory Animal Center SLAC (Shanghai, China) for use in the study. […]
as §3, with “The tumor sizes were then used for the calculations of both T-C and T/C values.” left out, “The T/C value (in percent) is an indication of antitumor effectiveness, T and C are the mean volume of the treated and control groups, respectively, on a given day.” left out

[4] = tested on: SK-MEL-5 human melanoma xenograft; experiment: subcutaneous SK-MEL-5 human melanoma xenograft model, tumor size; conditions: BALB/c nude mice, s.c. SK-MEL-5, DX-2400 20 mg/kg i.v. Q3D X6, paclitaxel 8 mg/kg i.p. Q4D X6; for tumor growth rate: compared to untreated mice; for tumor volume: compared to untreated mice (FIG. 2)
Description: The in vivo therapeutic efficacy of DX-2400 as a single agent or in combination with Paclitaxel in the treatment of human melanoma was evaluated using a subcutaneous SK-MEL-5 human melanoma xenograft model.
SK-MEL-5 human melanoma cells were grown in EMEM medium, supplemented with 10% heat inactivated fetal bovine serum, 100 U/ml penicillin and 100 μg/ml streptomycin at 37° C. in an atmosphere of 5% CO2 in air. The tumor cells were routinely subcultured twice weekly. Cells were harvested during the logarithmic growth period and resuspended in physical PBS with proper cell concentration and kept on ice for tumor induction.
as §2, with “18-22 g (40 mice+˜40% spare) were used for the study. Animals” for “18-22”, “China, Shanghai).” for “China) for use in the study (40 mice+˜40% spare).”, “SK-MEL-5” for “A375”
as §3

## CN(C)/N=N/c1[nH]cnc1C(N)=O [darcabazine, dacarbazine]
[1]
  tumor volume: reduced tumor volume
  tumor growth rate: caused a reduction in tumor growth rate

## Nc1ccn([C@@H]2O[C@H](CO)[C@@H](O)C2(F)F)c(=O)n1 [gemcitabine]
[2]
  mean tumor size: reduced the tumor size
[3]
  mean tumor size: reduced the tumor size

## CC(=O)O[C@H]1C(=O)[C@@]2(C)[C@H]([C@H](OC(=O)c3ccccc3)[C@]3(O)C[C@H](OC(=O)[C@H](O)[C@@H](NC(=O)c4ccccc4)c4ccccc4)C(C)=C1C3(C)C)[C@]1(OC(C)=O)CO[C@@H]1C[C@@H]2O [paclitaxel]
[4]
  tumor growth rate: caused a reduction in tumor growth rate
  tumor volume: reduced tumor volume

B1: DX-2400: human anti-MMP-14 antibody, light and heavy chains of M0038-F01; VH SEQ ID NO: 51, VL SEQ ID NO: 52 (antibody, listed as Homo sapiens, V domains shown)
VH: EVQLLESGGGLVQPGGSLRLSCAASGFTFSLYSMNWVRQAPGKGLEWVSSIYSSGGSTLYADSVKGRFTISRDNSKNTLYLQMNSLRAEDTAVYYCARGRAFDIWGQGTMVTVSS
VL: DIQMTQSPSSLSASVGDRVTITCRASQSVGTYLNWYQQKPGKAPKLLIYATSNLRSGVPSRFSGSGSGTDFTLTISSLQPEDFATYYCQQSYSIPRFTFGPGTKVDIK
[1]
  tumor volume: reduced tumor volume
  tumor growth rate: caused a reduction in the tumor growth rate
[4]
  tumor growth rate: caused a reduction in the tumor growth rate
  tumor volume: reduced tumor volume
[2]
  mean tumor size: reduced the mean tumor size
[3]
  mean tumor size: reduced the mean tumor size
